Measured values as given in PubChem BioAssay (NCI).
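All cell lines were grown in 96-well plates and treated with compound for 48 hours. Abbreviation: GI50, concentration required for 50% inhibition of growth. TGI: concentration producing complete growth inhibition.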

Key:
Experiment in all cases: inhibition of tumour cell growth, NCI panel, 48 h
786-0 renal = tested on: 786-0 renal
A498 renal = tested on: A498 renal
A549 NSCLC = tested on: A549 NSCLC
ACHN renal = tested on: ACHN renal
BT-549 breast = tested on: BT-549 breast
CAKI-1 renal = tested on: CAKI-1 renal
CCRF-CEM leukemia = tested on: CCRF-CEM leukemia
COLO 205 colon = tested on: COLO 205 colon
DU-145 prostate = tested on: DU-145 prostate
EKVX NSCLC = tested on: EKVX NSCLC
HCC-2998 colon = tested on: HCC-2998 colon
HCT-116 colon = tested on: HCT-116 colon
HCT-15 colon = tested on: HCT-15 colon
HL-60(TB) leukemia = tested on: HL-60(TB) leukemia
HOP-62 NSCLC = tested on: HOP-62 NSCLC
HOP-92 NSCLC = tested on: HOP-92 NSCLC
HS 578T breast = tested on: HS 578T breast
HT29 colon = tested on: HT29 colon
IGROV1 ovarian = tested on: IGROV1 ovarian
K-562 leukemia = tested on: K-562 leukemia
KM12 colon = tested on: KM12 colon
LOX IMVI melanoma = tested on: LOX IMVI melanoma
M14 melanoma = tested on: M14 melanoma
MALME-3M melanoma = tested on: MALME-3M melanoma
MCF7 breast = tested on: MCF7 breast
MDA-MB-231 breast = tested on: MDA-MB-231 breast
MDA-MB-435 = tested on: MDA-MB-435
MOLT-4 leukemia = tested on: MOLT-4 leukemia
NCI-H226 lung = tested on: NCI-H226 lung
NCI-H460 lung = tested on: NCI-H460 lung
NCI-H522 lung = tested on: NCI-H522 lung
NCI/ADR-RES ovarian = tested on: NCI/ADR-RES ovarian
OVCAR-3 ovarian = tested on: OVCAR-3 ovarian
OVCAR-4 ovarian = tested on: OVCAR-4 ovarian
OVCAR-5 ovarian = tested on: OVCAR-5 ovarian
OVCAR-8 ovarian = tested on: OVCAR-8 ovarian
PC-3 prostate = tested on: PC-3 prostate
RPMI-8226 leukemia = tested on: RPMI-8226 leukemia
RXF 393 renal = tested on: RXF 393 renal
SF-268 CNS = tested on: SF-268 CNS
SF-295 CNS = tested on: SF-295 CNS
SF-539 CNS = tested on: SF-539 CNS
SK-MEL-2 melanoma = tested on: SK-MEL-2 melanoma
SK-MEL-28 melanoma = tested on: SK-MEL-28 melanoma
SK-MEL-5 melanoma = tested on: SK-MEL-5 melanoma
SK-OV-3 ovarian = tested on: SK-OV-3 ovarian
SN12C renal = tested on: SN12C renal
SNB-19 CNS = tested on: SNB-19 CNS
SNB-75 CNS = tested on: SNB-75 CNS
SR leukemia = tested on: SR leukemia
SW-620 colon = tested on: SW-620 colon
T-47D breast = tested on: T-47D breast
TK-10 renal = tested on: TK-10 renal
U251 CNS = tested on: U251 CNS
UACC-257 melanoma = tested on: UACC-257 melanoma
UACC-62 melanoma = tested on: UACC-62 melanoma
UO-31 renal = tested on: UO-31 renal

CCOc1ccc([C@H]2C(C(=O)c3ccc(Cl)cc3)C3(N[C@@H]2c2ccccc2)C(=O)Nc2ccc(Br)cc23)cc1 (some centres undefined)
GI50 (786-0 renal): 15.4 µM | TGI (786-0 renal): 30.1 µM | GI50 (A498 renal): 14.3 µM | TGI (A498 renal): 28.8 µM | GI50 (A549 NSCLC): 13.9 µM | TGI (A549 NSCLC): 28.9 µM | GI50 (ACHN renal): 15 µM | TGI (ACHN renal): 28.6 µM | GI50 (BT-549 breast): 15.6 µM | TGI (BT-549 breast): 29.9 µM | GI50 (CAKI-1 renal): 13.1 µM | TGI (CAKI-1 renal): 26.2 µM | GI50 (CCRF-CEM leukemia): 23.1 µM | TGI (CCRF-CEM leukemia): 72 µM | GI50 (COLO 205 colon): 15 µM | TGI (COLO 205 colon): 30.1 µM | GI50 (DU-145 prostate): 17.7 µM | TGI (DU-145 prostate): 38 µM | GI50 (EKVX NSCLC): 15.9 µM | TGI (EKVX NSCLC): 35.4 µM | GI50 (HCC-2998 colon): 15.7 µM | TGI (HCC-2998 colon): 31 µM | GI50 (HCT-116 colon): 14.6 µM | TGI (HCT-116 colon): 29.7 µM | GI50 (HCT-15 colon): 16.1 µM | TGI (HCT-15 colon): 35.3 µM | GI50 (HL-60(TB) leukemia): 23.1 µM | TGI (HL-60(TB) leukemia): 63.1 µM | GI50 (HOP-62 NSCLC): 14.3 µM | TGI (HOP-62 NSCLC): 28 µM | GI50 (HOP-92 NSCLC): 7.75 µM | TGI (HOP-92 NSCLC): 21.8 µM | GI50 (HS 578T breast): 17.9 µM | TGI (HS 578T breast): 47.8 µM | GI50 (HT29 colon): 14.9 µM | TGI (HT29 colon): 31 µM | GI50 (IGROV1 ovarian): 14.2 µM | TGI (IGROV1 ovarian): 31.6 µM | GI50 (K-562 leukemia): 25.3 µM | TGI (K-562 leukemia): > 100 µM | GI50 (KM12 colon): 17.1 µM | TGI (KM12 colon): 49.1 µM | GI50 (LOX IMVI melanoma): 15.7 µM | TGI (LOX IMVI melanoma): 30.4 µM | GI50 (M14 melanoma): 15 µM | TGI (M14 melanoma): 30.1 µM | GI50 (MALME-3M melanoma): 14.7 µM | TGI (MALME-3M melanoma): 28.5 µM | GI50 (MCF7 breast): 14 µM | TGI (MCF7 breast): 36.7 µM | GI50 (MDA-MB-231 breast): 15.8 µM | TGI (MDA-MB-231 breast): 31.8 µM | GI50 (MDA-MB-435): 15.9 µM | TGI (MDA-MB-435): 30.3 µM | GI50 (MOLT-4 leukemia): 18.2 µM | TGI (MOLT-4 leukemia): 73.8 µM | GI50 (NCI-H226 lung): 15.1 µM | TGI (NCI-H226 lung): 32.6 µM | GI50 (NCI-H460 lung): 16.7 µM | TGI (NCI-H460 lung): 35.5 µM | GI50 (NCI-H522 lung): 14.2 µM | TGI (NCI-H522 lung): 28.2 µM | GI50 (NCI/ADR-RES ovarian): 19.8 µM | TGI (NCI/ADR-RES ovarian): 44.8 µM | GI50 (OVCAR-3 ovarian): 17.5 µM | TGI (OVCAR-3 ovarian): 38 µM | GI50 (OVCAR-4 ovarian): 14.3 µM | TGI (OVCAR-4 ovarian): 28.1 µM | GI50 (OVCAR-5 ovarian): 14.6 µM | TGI (OVCAR-5 ovarian): 29.4 µM | GI50 (OVCAR-8 ovarian): 16.4 µM | TGI (OVCAR-8 ovarian): 32 µM | GI50 (PC-3 prostate): 13.8 µM | TGI (PC-3 prostate): 27.6 µM | GI50 (RPMI-8226 leukemia): 22 µM | TGI (RPMI-8226 leukemia): 70.8 µM | GI50 (RXF 393 renal): 13.1 µM | TGI (RXF 393 renal): 26.1 µM | GI50 (SF-268 CNS): 17.3 µM | TGI (SF-268 CNS): 39.4 µM | GI50 (SF-295 CNS): 16.1 µM | TGI (SF-295 CNS): 30.3 µM | GI50 (SF-539 CNS): 15.9 µM | TGI (SF-539 CNS): 30.5 µM | GI50 (SK-MEL-2 melanoma): 14.1 µM | TGI (SK-MEL-2 melanoma): 27.9 µM | GI50 (SK-MEL-28 melanoma): 16.1 µM | TGI (SK-MEL-28 melanoma): 30.4 µM | GI50 (SK-MEL-5 melanoma): 18 µM | TGI (SK-MEL-5 melanoma): 32.7 µM | GI50 (SK-OV-3 ovarian): 14.5 µM | TGI (SK-OV-3 ovarian): 28.3 µM | GI50 (SN12C renal): 15.2 µM | TGI (SN12C renal): 31.2 µM | GI50 (SNB-19 CNS): 15.2 µM | TGI (SNB-19 CNS): 29.7 µM | GI50 (SNB-75 CNS): 11.3 µM | TGI (SNB-75 CNS): 23.7 µM | GI50 (SR leukemia): 15.5 µM | TGI (SR leukemia): 44 µM | GI50 (SW-620 colon): 18.5 µM | TGI (SW-620 colon): 40.9 µM | GI50 (T-47D breast): 14.2 µM | TGI (T-47D breast): 35.2 µM | GI50 (TK-10 renal): 13.7 µM | TGI (TK-10 renal): 28.8 µM | GI50 (U251 CNS): 15 µM | TGI (U251 CNS): 29.8 µM | GI50 (UACC-257 melanoma): 14.7 µM | TGI (UACC-257 melanoma): 29 µM | GI50 (UACC-62 melanoma): 13.3 µM | TGI (UACC-62 melanoma): 27.1 µM | GI50 (UO-31 renal): 12.9 µM | TGI (UO-31 renal): 25.6 µM
